Measurements from patent publication US20210395295A1, “INHIBITORS OF GLUCOCORTICOID RECEPTOR” (ORIC Pharmaceuticals, Inc., priority 2015, published 2021).

Legend:
AR = assay: In vitro AR agonism assay in LNAR reporter cell line; assay type: cell-based; conditions: for Relative Maximum Response to Mifepristone: LNAR cells (overexpressed AR, 4xARE-Luc), RPMI + 10% CSS, Mifepristone maximum response set to 1
Experimental: Example 5: In Vitro AR Agonisin Assay
The AR agonism assay was done in the LNAR reporter cell line which has overexpressed AR and 4×ARE-Luc genes. This cell line is sensitive to even minor partial AR agonism activity in hormone-deprived media (CSS). The assays were done in RPMI (without phenol red) +10% CSS using 6000 LNAR cells/well in 384-well plates and compounds were incubated with cells in […] incubator for 8-24 hrs. OneGlo reagent (25 uL/well) was added and plates were read with luminometer within 3 minutes.
To gauge the AR partial agonism activity, Mifepristone is included as a standard in the assay. AR agonism assay results are quantified by determining the ratio of the maximum response of individual compounds to the maximum response of Mifepristone (arbitrarily set to 1). Values of Table 4 are reported as Relative Maximum Response to Mifepristone. This general trend of AR agonism was shown for the class of compounds described herein.

GR = biological target: T1, GR (Homo sapiens, UniProt P04150); assay: In vitro GR luciferase reporter assay (antagonist mode); assay type: cell-based; conditions: CHO-K1-GR-MMTV-Luc reporter cells, 10 nM dexamethasone, 18-24 hours
T1 construct: expressed in transfected cells; host or cells: CHO-K1 (Chinese hamster ovary) reporter cells carrying GR and MMTV-Luc
T1 sequence (P04150 1-777): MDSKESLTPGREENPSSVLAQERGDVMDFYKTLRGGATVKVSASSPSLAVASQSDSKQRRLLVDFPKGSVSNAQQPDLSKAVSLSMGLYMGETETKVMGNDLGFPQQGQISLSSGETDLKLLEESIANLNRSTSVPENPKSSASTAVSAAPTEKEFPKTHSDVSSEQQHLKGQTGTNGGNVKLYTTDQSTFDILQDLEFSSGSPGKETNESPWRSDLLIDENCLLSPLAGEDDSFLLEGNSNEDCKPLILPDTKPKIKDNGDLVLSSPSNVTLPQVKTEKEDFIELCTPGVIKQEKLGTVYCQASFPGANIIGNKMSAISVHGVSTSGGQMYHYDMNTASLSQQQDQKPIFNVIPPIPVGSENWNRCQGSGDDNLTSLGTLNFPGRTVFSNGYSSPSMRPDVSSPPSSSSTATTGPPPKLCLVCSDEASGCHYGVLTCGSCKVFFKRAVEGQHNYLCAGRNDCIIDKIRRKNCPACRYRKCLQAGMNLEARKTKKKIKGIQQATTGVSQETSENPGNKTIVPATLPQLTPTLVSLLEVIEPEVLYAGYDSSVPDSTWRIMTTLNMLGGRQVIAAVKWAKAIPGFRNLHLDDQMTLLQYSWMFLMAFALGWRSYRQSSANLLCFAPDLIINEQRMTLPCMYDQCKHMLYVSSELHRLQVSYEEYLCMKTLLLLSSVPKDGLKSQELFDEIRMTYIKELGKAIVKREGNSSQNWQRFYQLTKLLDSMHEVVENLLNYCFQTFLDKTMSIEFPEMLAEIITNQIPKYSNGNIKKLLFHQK
From the text: Example 4: In Vitro GR Luciferase Reporter Assay
• Cell Line: CIH-K1-GR-MMTV-Luc reporter cells • Culture Media: DMEM (with phenol red) +10% FBS • Assay Media: DMEM (without phenol red) +10% CSS
Culture CHO-K1-GR-MMTV-Luc reporter cells in 15 cm plates in Culture Media at conditions less than 90% confluence.
Prepare 200× DMSO 1:5 serial dilutions of control and test compounds in 96-well non-sterile V bottom plate in DMSO, 8 serial dilutions for each compound.
Prepare 5× Assay Media diluted compound serial dilutions in 96-well non-sterile V bottom plate: Add 97.5 uL/well of Assay Media into 96-well then add 2.5 ul of 200× concentration of compounds and mix well.
Seed cells for Antagonist Assay: 1.5×10^6 CHO-K1-GR-MMTV-Luc reporter cells were seeded in a Corning 3707 flat clear bottom 384-well white TC plate in 20 ul of Assay Media containing 12.5 nM Dexamethasone (final concentration=10nM). […]
Read plates: Equilibrate appropriate amount of Promega OneGlo luciferase reagent to room temperature. Remove the plates from incubator and add 25 uL of OneGlo reagent/well by multiple channel pipette and read the plates with Tecan F500 luminometer within 3 minutes.
The ability of the compounds disclosed herein to inhibit GR activity was quantified and the respective IC50 value was determined. […]

SMILES | Relative Maximum Response to Mifepristone (AR) | IC50 (GR) [nM] | also measured
CC#C[C@]1(O)CC[C@H]2[C@@H]3CCC4=CC(=O)CCC4=C3[C@@H](c3ccc(N(C)C)cc3)C[C@@]21C [Mifepristone, reference compound] | – | – | concentration showing strong partial AR agonism (AR; LNAR reporter cells, hormone-deprived media (CSS)): ≥ 10 nM
CC(C)C#C[C@]1(O)CC[C@H]2[C@@H]3CCC4=CC(=O)CCC4=C3[C@@H](c3ccc(N(C)C)c(F)c3)C[C@@]21C | A (A: ≤0.4) | – | –
[2H]C([2H])([2H])C#C[C@]1(O)[C@H](C)C[C@H]2[C@@H]3CCC4=CC(=O)CCC4=C3[C@@H](c3cc(F)c(C)c(F)c3)C[C@@]21C | – | ≤ 100 | –
CN(C)c1ccc([C@H]2C[C@@]3(C)[C@@H](CC[C@@]3(O)C#CC(C)(C)C)[C@@H]3CCC4=CC(=O)CCC4=C32)cc1 | A (A: ≤0.4) | – | –
Cc1ccc([C@H]2C[C@@]3(C)[C@@H](CC[C@@]3(O)C#CC(C)(F)F)[C@@H]3CCC4=CC(=O)CCC4=C32)cc1F | – | > 100 | –
